The source of these data is the supplement of paper PMC6045584.

± gives the standard deviation of the averaged measurements.

Compound in one assay: C=CCn1c(=O)c2cnc(Nc3ccc(N4CCN(C)CC4)cc3)nc2n1-c1cccc(C(C)(C)O)n1 [MK-1775]
In words: surviving fraction relative to DMSO-only wells; higher = less growth inhibition. Conditions: exposure time: 5 days. The method, boiled down: (§1)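 Continuous five-day exposure to inhibitors at 0.5, 1, 5, 10, 50, 100, 500 and 1000 nM started 24 hours after log-phase tumour cell lines were seeded at 250–500 cells per well in 384-well plates. Luminescence was read after 10 minutes at room temperature. Viability is given as surviving fraction, meaning CellTiter-Glo luminescence normalised to the median of DMSO-only wells.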

Compound in a further assay: Cc1ccc(NC(=O)c2ccc(CN3CCN(C)CC3)cc2)cc1Nc1nccc(-c2cccnc2)n1 [IMATINIB]
The assay is described as above. The following applies: exposure time: 5 days. Summed up:
as §1

On to 93VU HEADNECK, for which the surviving fraction with MK-1775 (0.5 nM) was determined as 1.05 ± 0.098; in the assay with MK-1775 (1 nM) it was 0.996 ± 0.034; in the assay with MK-1775 (5 nM), 1.13 ± 0.1; in the assay with MK-1775 (10 nM) it was 1.01 ± 0.033; in the assay with MK-1775 (50 nM) it was 0.649 ± 0.063; with MK-1775 (100 nM) it was 0.416 ± 0.038. In addition, the surviving fraction with MK-1775 (500 nM) worked out at 0.22 ± 0.021; with MK-1775 (1000 nM), 0.165 ± 0.029; with IMATINIB (0.5 nM) it was 1.11 ± 0.14; with IMATINIB (1 nM), 1.13 ± 0.1; with IMATINIB (5 nM), 1.18 ± 0.019; with IMATINIB (50 nM) it was 1.3 ± 0.099. The surviving fraction was determined as 1.25 ± 0.047 in the assay with IMATINIB (100 nM), 1.29 ± 0.074 with IMATINIB (500 nM) and 1.1 ± 0.079 with IMATINIB (1000 nM).
For the test system NCIH441 LUNG, the surviving fraction with MK-1775 (0.5 nM) came out at 1.11 ± 0.085; with MK-1775 (1 nM) it was 1.04 ± 0.031; in the assay with MK-1775 (5 nM), 1.03 ± 0.029; with MK-1775 (10 nM), 0.986 ± 0.049; in the assay with MK-1775 (50 nM) it was 0.944 ± 0.065; in the assay with MK-1775 (100 nM), 0.794 ± 0.044. Also, the surviving fraction came to 0.428 ± 0.057 with MK-1775 (500 nM); 0.369 ± 0.044 with MK-1775 (1000 nM); 1.175 ± 0.0068 with IMATINIB (0.5 nM); 1.14 ± 0.076 with IMATINIB (1 nM); 1.14 ± 0.053 in the assay with IMATINIB (10 nM); 1.03 ± 0.12 with IMATINIB (50 nM). The surviving fraction with IMATINIB (100 nM) is 1.06 ± 0.082; in the assay with IMATINIB (1000 nM), 1.16 ± 0.15.
For the test system SUM159 BREAST, the surviving fraction with MK-1775 (0.5 nM) came to 1.06 ± 0.023; in the assay with MK-1775 (1 nM), 1.03 ± 0.021; with MK-1775 (5 nM), 1.04 ± 0.028; with MK-1775 (10 nM), 1.02 ± 0.022; with MK-1775 (50 nM), 1.01 ± 0.069; with MK-1775 (100 nM), 1.02 ± 0.057. The surviving fraction with MK-1775 (500 nM) was 0.69 ± 0.17; in the assay with MK-1775 (1000 nM), 0.377 ± 0.16; in the assay with IMATINIB (1 nM) it was 1.11 ± 0.015; with IMATINIB (5 nM) it was 1.11 ± 0.024; in the assay with IMATINIB (10 nM), 1.101 ± 0.0045; with IMATINIB (50 nM), 1.126 ± 0.009. For the same test system, in the assay with IMATINIB (500 nM), the surviving fraction was 1.14 ± 0.02.
With SJSA1 BONE, the surviving fraction with MK-1775 (0.5 nM) was found to be 1 ± 0.011; in the assay with MK-1775 (1 nM) it was 1.0057 ± 0.00058; with MK-1775 (5 nM), 1.03 ± 0.026; with MK-1775 (10 nM) it was 1.04 ± 0.034; in the assay with MK-1775 (50 nM), 1.02 ± 0.033; with MK-1775 (100 nM), 0.938 ± 0.049. The surviving fraction was found to be 0.384 ± 0.011 with MK-1775 (500 nM); 0.317 ± 0.02 in the assay with MK-1775 (1000 nM); 1.65 ± 0.051 with IMATINIB (0.5 nM); 1.71 ± 0.075 with IMATINIB (1 nM); 1.64 ± 0.1 with IMATINIB (5 nM); 1.83 ± 0.1 with IMATINIB (10 nM). For the same test system, the surviving fraction with IMATINIB (50 nM) worked out at 0.61 ± 0.12; in the assay with IMATINIB (100 nM), 1.36 ± 0.01; in the assay with IMATINIB (500 nM), 1.65 ± 0.039; with IMATINIB (1000 nM), 1.33 ± 0.024.
For MDAMB231 BREAST, the surviving fraction with MK-1775 (0.5 nM) was found to be 1.01 ± 0.034; with MK-1775 (1 nM), 1 ± 0.037; in the assay with MK-1775 (5 nM) it was 1 ± 0.026; with MK-1775 (10 nM), 1 ± 0.04; with MK-1775 (50 nM), 1.01 ± 0.043; with MK-1775 (100 nM), 0.778 ± 0.028. The surviving fraction worked out at 0.155 ± 0.0079 with MK-1775 (500 nM); 0.146 ± 0.0047 in the assay with MK-1775 (1000 nM); 0.9973 ± 0.0088 in the assay with IMATINIB (0.5 nM); 1.03 ± 0.04 with IMATINIB (1 nM); 1.01 ± 0.039 in the assay with IMATINIB (5 nM); 1.03 ± 0.022 with IMATINIB (10 nM). Further, the surviving fraction with IMATINIB (50 nM) is 1 ± 0.058; in the assay with IMATINIB (100 nM), 1.01 ± 0.027; with IMATINIB (500 nM), 0.968 ± 0.042; with IMATINIB (1000 nM), 0.96 ± 0.024.
For the test system CME SYNOVIAL, the surviving fraction with MK-1775 (0.5 nM) is 1.36 ± 0.27; with MK-1775 (1 nM) it was 1.31 ± 0.096; in the assay with MK-1775 (5 nM), 1.5 ± 0.11; in the assay with MK-1775 (10 nM) it was 1.24 ± 0.13; with MK-1775 (50 nM), 1.45 ± 0.094; in the assay with MK-1775 (100 nM) it was 1.4 ± 0.11. The surviving fraction with MK-1775 (500 nM) is 1.3 ± 0.18; in the assay with MK-1775 (1000 nM), 0.385 ± 0.025; with IMATINIB (0.5 nM), 1.27 ± 0.17; with IMATINIB (1 nM), 1.4 ± 0.045; with IMATINIB (5 nM), 1.28 ± 0.03; in the assay with IMATINIB (10 nM), 1.24 ± 0.16. The surviving fraction was found to be 1.22 ± 0.1 with IMATINIB (50 nM), 1.37 ± 0.042 with IMATINIB (100 nM), 1.15 ± 0.047 with IMATINIB (500 nM) and 1.14 ± 0.055 in the assay with IMATINIB (1000 nM).
With T47D BREAST, the surviving fraction with MK-1775 (0.5 nM) was 1.07 ± 0.021; with MK-1775 (1 nM), 1.05 ± 0.014; with MK-1775 (5 nM), 1.1 ± 0.044; with MK-1775 (10 nM), 1.01 ± 0.015; with MK-1775 (50 nM), 1.06 ± 0.065; in the assay with MK-1775 (100 nM) it was 0.979 ± 0.025. Besides, the surviving fraction with MK-1775 (500 nM) worked out at 0.453 ± 0.025; with MK-1775 (1000 nM) it was 0.38 ± 0.024; with IMATINIB (0.5 nM), 1.08 ± 0.042; with IMATINIB (1 nM), 1.05 ± 0.016; in the assay with IMATINIB (5 nM) it was 1.1 ± 0.02; with IMATINIB (10 nM), 1.05 ± 0.066. Further, the surviving fraction in the assay with IMATINIB (50 nM) turned out to be 1.13 ± 0.027; in the assay with IMATINIB (100 nM), 1.08 ± 0.036; in the assay with IMATINIB (500 nM), 1.1 ± 0.068; with IMATINIB (1000 nM) it was 1.07 ± 0.056.
For MDAMB436 BREAST, the surviving fraction in the assay with MK-1775 (0.5 nM) was determined as 0.978 ± 0.045; with MK-1775 (1 nM) it was 0.969 ± 0.028; with MK-1775 (5 nM), 0.948 ± 0.031; in the assay with MK-1775 (10 nM), 0.902 ± 0.081; in the assay with MK-1775 (50 nM), 0.79 ± 0.073; in the assay with MK-1775 (100 nM), 0.66 ± 0.023. In addition, the surviving fraction came to 0.312 ± 0.013 with MK-1775 (500 nM); 0.317 ± 0.021 in the assay with MK-1775 (1000 nM); 1.01 ± 0.078 with IMATINIB (0.5 nM); 0.984 ± 0.11 with IMATINIB (1 nM); 0.985 ± 0.079 in the assay with IMATINIB (5 nM); 0.998 ± 0.093 in the assay with IMATINIB (10 nM). In addition, the surviving fraction with IMATINIB (50 nM) worked out at 1.04 ± 0.14; in the assay with IMATINIB (500 nM) it was 1.1 ± 0.12.
As to CAL51 BREAST, the surviving fraction is 0.966 ± 0.047 with MK-1775 (0.5 nM); 0.9993 ± 0.0062 with MK-1775 (1 nM); 1.01 ± 0.016 in the assay with MK-1775 (5 nM); 0.994 ± 0.044 with MK-1775 (10 nM); 0.853 ± 0.012 in the assay with MK-1775 (50 nM); 0.48 ± 0.031 in the assay with MK-1775 (100 nM). Also, the surviving fraction with MK-1775 (500 nM) was 0.0318 ± 0.0013; in the assay with MK-1775 (1000 nM), 0.0317 ± 0.0026; in the assay with IMATINIB (0.5 nM), 1.04 ± 0.096; in the assay with IMATINIB (5 nM) it was 1.08 ± 0.036; with IMATINIB (10 nM), 1.06 ± 0.055; with IMATINIB (50 nM) it was 1.08 ± 0.024. Further, the surviving fraction is 1.06 ± 0.033 in the assay with IMATINIB (100 nM), 1.1 ± 0.012 with IMATINIB (500 nM) and 1.09 ± 0.054 in the assay with IMATINIB (1000 nM).
